Where two headings read alike, the source gives them in different places.
Columns and labels:
[1] = molecular target: CYP2C9 (Homo sapiens, UniProt P11712); assay: Direct CYP inhibition assay using pooled HLM; conditions: pooled HLM
Method: (§1) The enzyme reactions were initiated by adding NADPH (1 mM), and the mixtures were incubated at 37 °C for 5 min in a shaking water bath (100 rpm). The reaction was terminated by adding ice-cold acetonitrile (ACN) containing CBZ (100 nM) and 4-methyl-umbelliferone (300 nM) as internal standards (IS).
(§2) The chromatographic separation was performed on an Agilent 1200 series HPLC system (Agilent Technologies, Santa Clara, CA, USA) equipped with an Atlantis^TM dC18 column (2.1 × 50 mm, 3 µm; Waters Corporation, Milford, MA, USA) with a SecuityGuard^TM C18 guard column (2.0 × 4.0 mm; Phenomenex, Torrance, CA, USA). The mobile phases consisted of double-deionized water (DDW) containing 0.1% (v/v) of formic acid (A) and ACN containing 0.1% (v/v) formic acid (B). […] The sample injection volume was 10 µL, and the total run time was 9.0 min. The column and auto-sampler compartments were maintained at 30 °C and 10 °C, respectively, throughout the analysis. The detection was performed using an API4000 Q-TRAP system equipped with a Turbo V Ion Spray^TM source (Applied Biosystems, Foster City, CA, USA). The operating conditions were optimized as follows: ionization voltage: 5500 V for positive-ion mode and −4500 V for negative-ion mode; ion source temperature: 550 °C; nebulizing gas flow: 50 L/min; auxiliary gas flow: 40 L/min; and curtain gas flow: 30 L/min. The samples were analyzed via multiple reaction monitoring (MRM) mode. […] The data acquisition and processing were performed using Analyst^TM software (version 1.5.2; Applied Biosystems, Foster City, CA, USA).

[2] = molecular target: CYP2C19 (Homo sapiens, UniProt P33261); assay: Direct CYP inhibition assay using pooled HLM; conditions: pooled HLM
Method: as §1, §2

[3] = molecular target: T1, CYP2D6 (Homo sapiens, UniProt P10635); conditions: microsomes
Method: BBR (0–16 μM) was incubated with pooled HLM (0.2 mg/mL), NADPH (1 mM), and dextromethorphan (5 µM) in phosphate buffer (0.1 M; pH 7.4) for various incubation time periods (0–30 min). The apparent inactivation rate constants (kobs) at various BBR concentrations were estimated by fitting first-order kinetics to the relative enzyme activity vs. incubation time profiles. The rate of enzyme inactivation (kinact) and the inhibition constant (KI) were determined by fitting the following Equation (1) to the kobs values at various inhibitor concentrations Equation (1) [31]:(1) 1/kobs=KI/kinact×1/I+1/kinact

[4] = Metabolic stability and metabolite formation of BBR in pooled HLM; conditions: for Concentration in incubation mixture (elimination of BBR and formation of its metabolites): BBR 1 µM in pooled HLM with NADPH-generating system, mean ± SD
Method: To evaluate NADPH-dependent metabolism, BBR (1 µM) was incubated with pooled HLM (1 mg/mL) in the presence of the NADPH-regenerating system (1 mM of NADP^+, 5 mM of G6P, and 1 U/mL of G6PDH) to be a final volume of 200 µL. The reactions were quenched by adding the same volume of ice-cold ACN containing CBZ (100 nM) at 0, 7.5, 15, 30, 60, and 120 min of incubation. The incubation mixtures were centrifuged at 1000× g for 20 min at 4 °C, and the supernatants were analyzed by the LC-MS/MS system described in Section 2.2.
Meanwhile, to identify the known metabolites of BBR, an aliquot (5 µL) of the supernatant was injected into an accurate-MS system consisting of an Agilent 6530 Q-TOF LC/MS equipped with dual AJS ESI ion source (Agilent Technologies) and Agilent 1200 series HPLC system (Agilent Technologies). Chromatographic separations were performed on an Agilent Eclipse Plus C18 column (150 × 2.1 mm, 3.5 µm; Agilent Technologies) by gradient elution with a binary mobile phase consisting of DDW with 0.1% (v/v) formic acid (A) and ACN with 0.1% (v/v) formic acid (B) at a flow rate of 0.2 mL/min, where the mobile phase B was set as follows: 2% at 0 min, 20% at 15 min, and 30% at 20–25 min, followed by re-equilibration for 3 min.
In vitro metabolic stability parameters, including half-life (t1/2) and microsomal intrinsic clearance (CLint,mic), were determined according to our previous report [32]. The degradation t1/2 values of the microsomal stability studies were calculated using the following Equation (2):(2) t1/2=0.693/k, where k represents the first-order degradation rate constant. The k values were estimated by fitting a one-phase exponential decay model to the parent drug remaining (%) vs. incubation time plots using GraphPad Prism 5.0 (GraphPad Software Inc., San Diego, CA, USA).
The CLint,mic was determined using the in vitro half-life approach.

[5] = molecular target: T2, CYP1A2 (Homo sapiens, UniProt P05177); assay: Direct CYP inhibition assay using pooled HLM; conditions: pooled HLM
T2 sequence (P05177 1-516): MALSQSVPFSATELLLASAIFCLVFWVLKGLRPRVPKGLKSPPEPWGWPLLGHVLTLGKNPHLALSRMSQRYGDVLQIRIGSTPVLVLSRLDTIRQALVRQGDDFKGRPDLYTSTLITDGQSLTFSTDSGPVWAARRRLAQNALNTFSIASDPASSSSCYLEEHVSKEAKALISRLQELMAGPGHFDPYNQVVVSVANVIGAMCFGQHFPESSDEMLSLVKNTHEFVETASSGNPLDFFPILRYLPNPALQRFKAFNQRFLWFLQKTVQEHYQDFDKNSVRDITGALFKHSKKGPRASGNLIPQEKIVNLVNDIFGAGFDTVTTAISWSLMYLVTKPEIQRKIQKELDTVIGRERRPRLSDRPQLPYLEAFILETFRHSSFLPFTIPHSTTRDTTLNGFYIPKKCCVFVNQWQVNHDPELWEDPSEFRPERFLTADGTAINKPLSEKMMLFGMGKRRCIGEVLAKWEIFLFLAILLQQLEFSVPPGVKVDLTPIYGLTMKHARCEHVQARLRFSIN
Method: as §1, §2

[6] = molecular target: CYP3A4 (Homo sapiens, UniProt P08684); assay: Direct CYP inhibition assay using pooled HLM
Sequence of CYP3A4 (P08684 whole entry): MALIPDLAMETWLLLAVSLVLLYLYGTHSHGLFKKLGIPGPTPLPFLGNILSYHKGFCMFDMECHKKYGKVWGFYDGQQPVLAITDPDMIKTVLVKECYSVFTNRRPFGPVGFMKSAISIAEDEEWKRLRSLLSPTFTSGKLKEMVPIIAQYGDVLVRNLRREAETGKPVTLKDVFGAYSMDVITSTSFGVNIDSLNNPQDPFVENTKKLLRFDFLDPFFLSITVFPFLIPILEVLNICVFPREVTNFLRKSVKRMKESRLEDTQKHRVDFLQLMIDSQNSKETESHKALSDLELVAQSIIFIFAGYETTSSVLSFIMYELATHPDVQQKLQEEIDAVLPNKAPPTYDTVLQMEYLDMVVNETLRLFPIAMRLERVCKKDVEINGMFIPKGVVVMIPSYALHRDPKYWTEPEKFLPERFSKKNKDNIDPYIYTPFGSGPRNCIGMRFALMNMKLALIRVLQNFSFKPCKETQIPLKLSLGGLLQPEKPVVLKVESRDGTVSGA
Method: as §1, §2

[7] = molecular target: T1, CYP2D6; assay: Metabolism-dependent CYP2D6 inhibition assay (IC50 shift) using pooled HLM; conditions: pooled HLM; for MDI (metabolism-dependent inhibition) of CYP2D6 (in words): pre-incubation with NADPH
Method: Pre-incubation was performed in pooled HLM (0.2 mg/mL) added with BBR, THB, TFD, or DMB, or rhCYP2D6 (10 pmol/mL) added with BBR, with or without NADPH (1 mM) in phosphate buffer (0.1 M; pH 7.4) for 30 min. Then, the CYP2D6 substrate (5 µM of dextromethorphan) and NADPH (1 mM) were added to the mixture and incubated for another 10 min. All incubations were carried out at 37 °C in a shaking water bath (100 rpm) using eight-well tube strips placed in an 8 × 12 rack, where the final volume of each reaction mixture was 200 µL. […] The enzyme reactions were quenched by adding an aliquot (200 µL) of ice-cold ACN containing CBZ (100 nM) as an IS. The samples were centrifuged, and the concentration of CYP2D6 metabolite (i.e., dextrorphan, produced by O-demethylation of dextromethorphan) in supernatants were analyzed using the LC-MS/MS method described in Section 2.2.

[8] = molecular target: CYP2E1 (Homo sapiens, UniProt P05181); assay: Direct CYP inhibition assay using pooled HLM; conditions: pooled HLM
Sequence of CYP2E1 (P05181 whole entry): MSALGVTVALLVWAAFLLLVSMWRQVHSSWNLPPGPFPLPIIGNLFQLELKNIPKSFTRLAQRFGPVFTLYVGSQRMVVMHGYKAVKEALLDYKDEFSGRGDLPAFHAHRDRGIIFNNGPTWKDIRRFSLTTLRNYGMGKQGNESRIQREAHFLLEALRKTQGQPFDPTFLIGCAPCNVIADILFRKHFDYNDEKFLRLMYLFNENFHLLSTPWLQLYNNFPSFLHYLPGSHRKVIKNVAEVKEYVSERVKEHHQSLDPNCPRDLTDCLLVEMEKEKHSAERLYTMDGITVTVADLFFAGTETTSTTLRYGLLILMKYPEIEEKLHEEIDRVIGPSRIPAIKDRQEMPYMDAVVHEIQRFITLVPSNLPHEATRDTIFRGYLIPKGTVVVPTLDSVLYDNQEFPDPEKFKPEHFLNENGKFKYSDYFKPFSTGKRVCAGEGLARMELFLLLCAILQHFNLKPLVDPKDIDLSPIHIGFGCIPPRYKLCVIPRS
Method: as §1, §2

[9] = molecular target: T3, CYP2B6 (Homo sapiens, UniProt P20813); assay: Direct CYP inhibition assay using pooled HLM; conditions: pooled HLM
T3 sequence (P20813 1-491): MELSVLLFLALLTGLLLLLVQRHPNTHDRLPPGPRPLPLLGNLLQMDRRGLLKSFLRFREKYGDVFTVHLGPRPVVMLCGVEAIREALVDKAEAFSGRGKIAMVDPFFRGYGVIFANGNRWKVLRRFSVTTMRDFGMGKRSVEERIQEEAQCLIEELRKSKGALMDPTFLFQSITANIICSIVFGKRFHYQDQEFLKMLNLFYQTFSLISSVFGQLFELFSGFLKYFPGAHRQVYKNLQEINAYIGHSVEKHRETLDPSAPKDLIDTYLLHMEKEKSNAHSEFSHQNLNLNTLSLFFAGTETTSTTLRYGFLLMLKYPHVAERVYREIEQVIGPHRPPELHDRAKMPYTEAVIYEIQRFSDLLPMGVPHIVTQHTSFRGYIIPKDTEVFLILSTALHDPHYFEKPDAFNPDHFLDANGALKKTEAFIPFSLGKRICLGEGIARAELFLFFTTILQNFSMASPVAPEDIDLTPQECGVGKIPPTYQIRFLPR
Method: as §1, §2

[10] = molecular target: T4, CYP2C8 (Homo sapiens, UniProt P10632); assay: Direct CYP inhibition assay using pooled HLM; conditions: pooled HLM
T4 sequence (P10632 1-490): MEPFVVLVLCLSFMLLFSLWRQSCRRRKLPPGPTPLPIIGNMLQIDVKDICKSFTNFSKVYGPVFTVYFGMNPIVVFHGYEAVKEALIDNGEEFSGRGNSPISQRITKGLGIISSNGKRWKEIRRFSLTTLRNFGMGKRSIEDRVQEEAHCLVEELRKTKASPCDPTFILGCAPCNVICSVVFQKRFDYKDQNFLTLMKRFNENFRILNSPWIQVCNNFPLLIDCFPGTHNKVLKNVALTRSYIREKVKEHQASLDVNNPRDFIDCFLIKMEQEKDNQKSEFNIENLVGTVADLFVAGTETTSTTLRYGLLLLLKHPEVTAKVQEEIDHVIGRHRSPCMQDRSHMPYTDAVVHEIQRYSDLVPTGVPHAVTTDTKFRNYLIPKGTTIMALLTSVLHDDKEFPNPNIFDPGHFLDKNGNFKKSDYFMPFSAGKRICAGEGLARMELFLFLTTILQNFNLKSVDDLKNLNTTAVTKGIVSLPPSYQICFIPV
Method: as §1, §2

[11] = molecular target: T5, CYP2A6 (Homo sapiens, UniProt P11509); assay: Direct CYP inhibition assay using pooled HLM; conditions: pooled HLM
T5 sequence (P11509 1-494): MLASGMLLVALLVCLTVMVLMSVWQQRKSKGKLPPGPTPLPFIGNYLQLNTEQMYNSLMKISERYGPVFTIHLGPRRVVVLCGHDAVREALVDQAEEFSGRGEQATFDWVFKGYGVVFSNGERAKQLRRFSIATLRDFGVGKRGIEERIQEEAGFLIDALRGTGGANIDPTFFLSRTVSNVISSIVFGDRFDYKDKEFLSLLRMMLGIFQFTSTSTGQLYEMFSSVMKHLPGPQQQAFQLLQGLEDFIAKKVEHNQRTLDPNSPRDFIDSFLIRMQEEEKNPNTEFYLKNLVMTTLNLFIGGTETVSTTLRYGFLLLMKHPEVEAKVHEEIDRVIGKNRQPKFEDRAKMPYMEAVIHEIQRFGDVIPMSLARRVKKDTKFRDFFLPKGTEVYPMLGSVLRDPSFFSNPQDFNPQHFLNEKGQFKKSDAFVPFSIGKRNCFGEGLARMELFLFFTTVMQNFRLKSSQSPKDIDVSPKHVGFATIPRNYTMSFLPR
Method: as §1, §2

[12] = molecular target: T1, CYP2D6; assay: Direct CYP inhibition assay using pooled HLM
Method: as §1, §2

[13] = human, pooled human liver microsomes

T1 sequence (P10635 whole entry): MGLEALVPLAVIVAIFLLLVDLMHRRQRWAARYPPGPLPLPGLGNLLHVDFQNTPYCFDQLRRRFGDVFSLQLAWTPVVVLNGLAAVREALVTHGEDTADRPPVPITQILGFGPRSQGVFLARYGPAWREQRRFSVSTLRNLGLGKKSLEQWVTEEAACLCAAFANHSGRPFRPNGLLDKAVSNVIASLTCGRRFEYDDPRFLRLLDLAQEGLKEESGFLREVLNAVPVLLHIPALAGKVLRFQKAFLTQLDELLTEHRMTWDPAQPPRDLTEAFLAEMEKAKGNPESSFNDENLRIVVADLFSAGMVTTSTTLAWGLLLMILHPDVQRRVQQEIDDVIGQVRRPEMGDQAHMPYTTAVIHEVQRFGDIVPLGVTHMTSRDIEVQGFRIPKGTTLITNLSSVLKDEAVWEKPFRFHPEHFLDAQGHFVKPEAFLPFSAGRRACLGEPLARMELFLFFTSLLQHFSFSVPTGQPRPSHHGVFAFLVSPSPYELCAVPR
Sequence of CYP2C9 (P11712 whole entry): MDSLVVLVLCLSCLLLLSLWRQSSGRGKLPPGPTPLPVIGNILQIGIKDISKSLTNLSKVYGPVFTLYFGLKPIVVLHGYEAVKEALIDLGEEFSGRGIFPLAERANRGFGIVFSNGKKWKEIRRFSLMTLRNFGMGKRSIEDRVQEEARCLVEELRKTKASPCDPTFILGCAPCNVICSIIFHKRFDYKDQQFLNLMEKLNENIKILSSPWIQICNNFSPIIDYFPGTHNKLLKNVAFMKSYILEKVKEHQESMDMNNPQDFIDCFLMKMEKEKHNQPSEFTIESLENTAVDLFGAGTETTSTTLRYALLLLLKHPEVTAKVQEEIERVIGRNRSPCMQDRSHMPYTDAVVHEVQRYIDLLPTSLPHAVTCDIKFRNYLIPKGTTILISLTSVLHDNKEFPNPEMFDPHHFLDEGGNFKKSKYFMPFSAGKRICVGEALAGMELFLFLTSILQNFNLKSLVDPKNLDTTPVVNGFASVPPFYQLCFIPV
Sequence of CYP2C19 (P33261 whole entry): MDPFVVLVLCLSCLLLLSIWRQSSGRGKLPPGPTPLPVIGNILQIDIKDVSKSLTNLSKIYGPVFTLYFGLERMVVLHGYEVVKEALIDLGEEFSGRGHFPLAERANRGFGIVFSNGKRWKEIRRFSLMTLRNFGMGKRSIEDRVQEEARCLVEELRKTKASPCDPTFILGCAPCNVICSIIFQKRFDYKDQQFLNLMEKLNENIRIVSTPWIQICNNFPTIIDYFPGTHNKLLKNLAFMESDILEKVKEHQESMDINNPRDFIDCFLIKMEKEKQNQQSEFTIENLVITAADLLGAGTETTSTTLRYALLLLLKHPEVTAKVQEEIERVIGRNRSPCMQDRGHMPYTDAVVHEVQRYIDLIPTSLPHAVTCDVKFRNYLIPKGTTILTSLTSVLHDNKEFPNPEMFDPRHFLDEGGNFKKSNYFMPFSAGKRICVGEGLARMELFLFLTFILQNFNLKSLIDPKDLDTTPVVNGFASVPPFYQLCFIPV

Compound: COc1ccc2cc3[n+](cc2c1OC)CCc1cc2c(cc1-3)OCO2 [BBR, berberine]
- Inhibition of CYP2C9 (in words) ([1]; up to 100 µM): not markedly inhibited
- Inhibition of CYP2C19 (in words) ([2]; up to 100 µM): not markedly inhibited
- kinact/KI against CYP2D6 [3]: 97.2 M⁻¹ s⁻¹
- Concentration in incubation mixture (elimination of BBR and formation of its metabolites) ([4]; 0 min): 1049 ± 16 nM
- Concentration in incubation mixture (elimination of BBR and formation of its metabolites) ([4]; 7.5 min): 807 ± 11 nM
- Concentration in incubation mixture (elimination of BBR and formation of its metabolites) ([4]; 15 min): 713 ± 12 nM
- Concentration in incubation mixture (elimination of BBR and formation of its metabolites) ([4]; 30 min): 539 ± 4 nM
- Concentration in incubation mixture (elimination of BBR and formation of its metabolites) ([4]; 60 min): 313 ± 15 nM
- Concentration in incubation mixture (elimination of BBR and formation of its metabolites) ([4]; 120 min): 147 ± 5 nM
- half-life at 1 µM [4, 13]: 35.4 min
- microsomal CLint at 1 µM [4, 13]: 7.82 µL/min/mg
- Metabolic stability in HLM (in words) ([4]; pooled HLM): moderately stable
- Inhibition of CYP1A2 (in words) ([5]; up to 100 µM): not markedly inhibited
- Inhibition of CYP3A4 (in words) ([6]; up to 100 µM, substrates MDZ and TST): not markedly inhibited
- IC50 ([7]; IC50 against CYP2D6, pre-incubation with NADPH, 30 min pre-incubation with NADPH): 1.66 µM
- IC50 ([7]; IC50 against CYP2D6, pre-incubation without NADPH, 30 min pre-incubation without NADPH): 12.4 µM
- MDI (metabolism-dependent inhibition) of CYP2D6 (in words) [7]: exhibited MDI
- Inhibition of CYP2E1 (in words) ([8]; up to 100 µM): not markedly inhibited
- Inhibition of CYP2B6 (in words) ([9]; up to 100 µM): not markedly inhibited
- Inhibition of CYP2C8 (in words) ([10]; up to 100 µM): not markedly inhibited
- Inhibition of CYP2A6 (in words) ([11]; up to 100 µM): not markedly inhibited
- IC50 [12]: 11.9 µM

Compound: COc1ccc2cc3[n+](cc2c1OC)CCc1cc(O)c(O)cc1-3 [DMB, demethyleneberberine]
- IC50 ([1]; read-out: IC50 CYP2C9, direct inhibition, 95% confidence intervals in parentheses): > 100 µM
- IC50 ([2]; read-out: IC50 CYP2C19, direct inhibition, 95% confidence intervals in parentheses): > 100 µM
- Concentration in incubation mixture (elimination of BBR and formation of its metabolites) ([4]; 0 min): 6.1 ± 0.1 nM
- Concentration in incubation mixture (elimination of BBR and formation of its metabolites) ([4]; 7.5 min): 24.1 ± 0.3 nM
- Concentration in incubation mixture (elimination of BBR and formation of its metabolites) ([4]; 15 min): 38.1 ± 0.5 nM
- Concentration in incubation mixture (elimination of BBR and formation of its metabolites) ([4]; 30 min): 52.6 ± 1.9 nM
- Concentration in incubation mixture (elimination of BBR and formation of its metabolites) ([4]; 60 min): 64.3 ± 1.6 nM
- Concentration in incubation mixture (elimination of BBR and formation of its metabolites) ([4]; 120 min): 75.0 ± 1.0 nM
- IC50 ([5]; read-out: IC50 CYP1A2, direct inhibition, 95% confidence intervals in parentheses): > 100 µM
- IC50 ([6]; read-out: IC50 CYP3A4 (MDZ), direct inhibition, substrate MDZ, 95% confidence intervals in parentheses): 66 µM
- IC50 ([6]; read-out: IC50 CYP3A4 (TST), direct inhibition, substrate TST, 95% confidence intervals in parentheses): 7.3 µM
- MDI (metabolism-dependent inhibition) of CYP2D6 (in words) [7]: not
- IC50 ([7]; read-out: IC50 against CYP2D6, pre-incubation with NADPH, 30 min pre-incubation with NADPH): 54.9 µM
- IC50 ([7]; read-out: IC50 against CYP2D6, pre-incubation without NADPH, 30 min pre-incubation without NADPH): 34.7 µM
- IC50 ([8]; read-out: IC50 CYP2E1, direct inhibition, 95% confidence intervals in parentheses): 7.7 µM
- IC50 ([9]; read-out: IC50 CYP2B6, direct inhibition, 95% confidence intervals in parentheses): > 100 µM
- IC50 ([10]; read-out: IC50 CYP2C8, direct inhibition, 95% confidence intervals in parentheses): > 100 µM
- IC50 ([11]; read-out: IC50 CYP2A6, direct inhibition, 95% confidence intervals in parentheses): > 100 µM
- IC50 ([12]; read-out: IC50 CYP2D6, pooled HLM, direct inhibition, substrate dextromethorphan, 95% confidence intervals in parentheses): 32 µM

Reference: article PMC7600264, “Quasi-Irreversible Inhibition of CYP2D6 by Berberine” (Pharmaceutics, 2020)
